Key:
[1] = test system: Collagen I; experiment: DSS intestinal fibrosis study: Western blot of colon, Collagen I; format: in vivo, mice; conditions: whole colon, OD normalized with GAPDH, expressed as percentage of control groups; DSS 284.4 ± 63.86; listed as GED
Method: For the Western blot analysis, 0.5 cm of frozen colonic samples were homogenized in RIPA Buffer containing 50 mM Tris HCl pH 7.6, 150 mM NaCl, 1.5 mM MgCl2, 5 mM EDTA, 1% Triton-X and 10% Glycerol, supplemented with 100 mM Sodium Fluoride (NaF), 2 mM Sodium Orthovanadate (Na3VO4), 10 mM Sodium Pyrophosphate (NaPPi), 1 mM phenylmethanesulphone (PMSF) and a classical protease-inhibitor cocktail containing 10 μg/mL Leupeptin and Aprotinin.
For each sample, 30 μg of protein was separated by PAGE and electroblotted. Nitrocellulose membranes (100% pure) were incubated (according with a specific protocol for each antibody) with primary antibodies directed against CTGF, Collagen-I and GAPDH (purchased from Abcam, Cambridge, UK; 1:1000 for 2 h at RT), diluted in 5% non-fat milk in 0.1% TBS-t. […] Optical density of target bands was determined using a computer-assisted densitometer and the ImageJ public domain software (W. S., Rasband, ImageJ, U. S. National Institutes of Health, Bethesda, MD; http://rsb.info.nih.gov/ij/, 1997-2011). Tissue levels were expressed as units of Optical Density (OD) per quantity of total proteins, normalized with internal control GAPDH and the results were expressed as percentage of control groups.

[2] = test system: α-SMA; experiment: Liver gene expression by quantitative Real Time PCR: α-SMA; format: in vivo, mice; conditions: liver mRNA, normalized to β-actin; CCl4 group 65.51 ± 22.24
Method: The effect of administration of compound 34 (GED) and the specific CB2 agonist (JWH-133) was evaluated on the level of gene expression of cytokines (IL-1β, TNF-α) and genes involved in the mechanism of fibrosis by quantitative Real Time PCR.
Total RNA was isolated from livers using Rneasy kit (Macherey Nagel, Hoerdt, France) according to the manufacturer's instructions. RNA quantification was performed using spectrophotometry. After treatment at 37° C. for 30 min with 20-50 units of RNase-free DNase I (Roche Diagnostics Corporation, Indianapolis, IN, USA), oligo-dT primers (Roche Diagnostics Corporation, Indianapolis, USA) were used to synthesize single-stranded cDNA. mRNAs were quantified using SYBR green Master Mix (Applera, Courtaboeuf, France) with murine specific oligonucleotides (see Table 2) in a GeneAmp Abiprism 7000 (Applera, Courtaboeuf, France). In each assay, calibrated and no-template controls were included. Each sample was run in triplicate. SYBR green dye intensity was analyzed using the Abiprism 7000 SDS software (Applera, Courtaboeuf, France). All results were normalized to the unaffected housekeeping gene β-actin.

[3] = test system: C57BL/6 mice; experiment: DSS chronic colitis (Ex. 7): microscopic colonic lesions (H&E, Masson's trichrome); format: in vivo
Method: The macroscopic colonic lesions including dilation, thickness and stenosis were scored by an independent observer, unaware of the mice treatment. Tissue specimens from the colon were dissected and immediately frozen or fixed in fresh 4% formaldehyde (FA)/PBS solution for 3 h at room temperature followed by the standard procedure for paraffin embedding. Paraffin embedded tissues transversally sectioned at 3 μm were subject to Hematoxylin/Eosin staining, to assess the inflammatory degree, and Masson trichrome to better assess connective tissue and fibrosis. […] The degree of intestinal inflammation was assessed according to the density and extent of chronic inflammatory infiltrate, loss of goblet cells, and bowel wall thickening. […]
Intestinal fibrosis was scored as absent, mild, or severe, depending on the density and extent of trichrome-positive connective tissue staining and disruption of tissue architecture.

[4] = test system: C57bl6 mice; experiment: DSS intestinal fibrosis study: inflammation level by histology (May-Grunwald-Giemsa); format: in vivo; conditions: colon, MGG staining; DSS vehicle 3.77±0.80, control 0.50±0.33
Method: Rings of the transverse part of the colon were sampled (post mortem) and fixed in 4% formaldehyde and embedded in paraffin for histological analysis. Sections (4 μm) were stained with May-Grunwald-Giemsa and a multiparametric histological scoring (0 to 18) was performed blindly by two investigators. This staining allowed the quantification of inflammation. Histological grades, reflecting the inflammation level, were assigned based on the intensity of cellular infiltrate in the mucosa, its extension in sub-mucosa layers and the presence of epithelial lesions (see Table 5).

COC(Cc1ccc(N)cc1)C(=O)O (racemic) [Compound 34, (±)-2-methoxy-3-(4′-aminophenyl) propionic acid]
Collagen I (Western blot) [1]: 90.75±19.91
α-SMA [2]: 42.81 ± 14.81
intestinal wall architecture (H&E, Masson's trichrome) ([3]; FIG. 12 legend, result in words): restoring of normal intestinal wall architecture
Total microscopic score (maximum 10) ([3]; daily oral GED, DSS 6.45±0.82, FIG. 12): 3.36±0.55
inflammation level, histological score (0 to 18) [4]: 2.18±0.48
